Test results taken from US12692274B2, “Tetrahydroisoquinoline derivatives for the treatment of red blood disorders and inflammatory diseases” (Sanofi, priority 2020, dated 2026).
“And” between values parts separate entries of the source, which are not always exact repeats. Equal values may be shown once.

What was measured:
[1] = test system: NQO1 activation in BEAS-2B cells; experiment: BEAS-2B cellular MTT assay of NQO1 activation, 0% HSA; assay type: cell-based
How it was run: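 BEAS-2B cells grown in BEBM with BEGM SingleQuots (no GA-1000), kept below 70% confluence, seeded on collagen plates at a density giving 95-100% confluence after 48 h. Plates seeded in medium without HSA (0% HSA condition).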

[2] = test system: NQO1 activation in BEAS-2B cells; experiment: BEAS-2B cellular MTT assay of NQO1 activation, 0.3% HSA; assay type: cell-based
How it was run: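 BEAS-2B cells (<70% confluent in culture, BEBM/SingleQuots without GA-1000) seeded in collagen plates with 0.3% or 0% HSA, reaching 95-100% confluency after 48 h at 37 °C, 5% CO2; MTT read-out.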

[3] = target: HIS-Keap1 full length / Biotin-Nrf2 (16-mer) (Homo sapiens, UniProt Q14145); experiment: biochemical
HIS-Keap1 full length / Biotin-Nrf2 (16-mer), sequence (Q14145 whole entry): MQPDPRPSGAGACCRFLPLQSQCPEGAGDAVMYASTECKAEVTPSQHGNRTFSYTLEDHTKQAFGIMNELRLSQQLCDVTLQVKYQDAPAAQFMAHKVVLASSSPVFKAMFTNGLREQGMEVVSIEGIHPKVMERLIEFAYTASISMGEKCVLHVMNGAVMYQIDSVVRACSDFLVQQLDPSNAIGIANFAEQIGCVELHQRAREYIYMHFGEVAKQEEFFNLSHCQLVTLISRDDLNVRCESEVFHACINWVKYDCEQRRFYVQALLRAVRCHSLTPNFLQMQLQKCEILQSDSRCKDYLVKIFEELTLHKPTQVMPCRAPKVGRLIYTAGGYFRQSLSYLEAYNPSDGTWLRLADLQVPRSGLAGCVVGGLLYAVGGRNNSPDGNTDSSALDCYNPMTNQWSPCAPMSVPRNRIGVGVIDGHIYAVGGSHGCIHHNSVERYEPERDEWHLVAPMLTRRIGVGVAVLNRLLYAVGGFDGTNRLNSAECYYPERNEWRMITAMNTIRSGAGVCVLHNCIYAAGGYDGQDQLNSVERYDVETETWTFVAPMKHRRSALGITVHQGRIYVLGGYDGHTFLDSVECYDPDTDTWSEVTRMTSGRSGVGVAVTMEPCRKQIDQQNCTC

[4] = Homo sapiens, serum free, read-out: BEAS EC50 (nM) serum free
[5] = serum free, read-out: BEAS EC50 (nM) serum free
[6] = Homo sapiens, BEAS+, read-out: BEAS+ EC50
[7] = Homo sapiens, Serum Free W, read-out: BEAS EC50 (nM) Serum Free W
[8] = BEAS+ W, read-out: BEAS+ W EC50
[9] = Homo sapiens, BEAS+ W, read-out: BEAS+ W EC50
[10] = Serum Free W, read-out: BEAS EC50 (nM) Serum Free W

Row | Compound | EC50 [1, 4] [nM] | EC50 [1, 5] | EC50 ([2]; BEAS+, read-out: BEAS+ EC50) | EC50 [2, 6] [µM] | IC50 [3] | EC50 [1, 7] [nM] | EC50 [2, 8] [µM] | EC50 [2, 9] [µM] | EC50 [1, 10] [nM]
1 | C[C@@H](C(=O)O)[C@H]1c2ccc3c(c2)CN(CC3)C(=O)c2ccc(cc2)OCCCCCn2nnc3cc1ccc32 [Compound 232] | 7.2 | 4.6 nM | 0.0083 µM | 0.009 | 0.0014 µM |  |  |  | 
2 | Cc1c2ccc3c1nnn3CCCCCCc1ccc(c(F)c1)C(=O)N1CCc3ccc(cc3C1)[C@H]2[C@@H](C)C(=O)O [Compound 141] |  |  |  |  | > 0.99 µM | > 1000 | 7.04 | 7.2 | 
3 | Cc1c2ccc3c1nnn3CCCCCc1ccc(cc1)C(=O)N1CCc3ccc(cc3C1)[C@@H]2CC(=O)O [Compound 285] | 4.7 |  |  | 0.0098 | 0.0003 µM and 0.0005 µM |  |  |  | 
4 | Cc1cc2ccc1C(=O)N1CCc3ccc(cc3C1)[C@@H](CC(=O)O)c1ccc3c(nnn3CCC/C=C/C2)c1C [Compound 392] | 10.6 | 10.3 nM | 0.0155 µM | 0.0137 | 0.0005 µM |  |  |  | 
5 | Cc1c2cnc3c1nnn3CCCCCCc1ccc(cc1)C(=O)N1CCc3ccc(cc3C1)[C@H]2CC(=O)O [Compound 140] | 11.6 | 8.8 nM | 0.0273 µM | 0.0304 | 0.0003 µM and 0.0005 µM |  |  |  | 
6 | COc1cc2ccc1CCCCCCn1nnc3c(C)c(cnc31)C(CC(=O)O)c1ccc3c(c1)CN(CC3)C2=O (centres unmarked) [Compound 104] | 9.3 | 7.4 nM | 0.0192 µM | 0.0164 | 0.0002 µM and 0.0003 µM and 0.0017 µM and 0.0016 µM | 30 | 0.13 | 0.147 | 36.5
7 | Cc1c2cnc3c1nnn3CCCCCCc1c(F)c(F)c(c(F)c1F)C(=O)N1CCc3ccc(cc3C1)[C@@H]2[C@@H](C)C(=O)O [Compound 36] |  |  |  |  | 0.0127 µM and 0.0025 µM | 35 | 0.0954 | 0.184 | 36.7
8 | Cc1c2cnc3c1nnn3CCCC/C=C/Cc1ccc(cc1)C(=O)N1CCc3ccc(cc3C1)[C@H]2CC(=O)O [Compound 352] |  |  |  |  | 0.0068 µM and 0.0077 µM | 21.9 | 0.481 | 0.417 | 33
9 | Cc1c2ccc3c1nnn3CCCCCCc1ccc(c(F)c1)C(=O)N1CCc3ccc(cc3C1)[C@@H]2[C@@H](C)C(=O)O [Compound 167] |  |  |  |  | 0.0123 µM and 0.0141 µM | 34.7 | 0.133 | 0.103 | 36.6
10 | Cc1cc2ncc1C(CC(=O)O)c1ccc3c(c1)CN(CC3)C(=O)c1ccc(cc1)CCCCCO2 (centres unmarked) [Compound 157] | 3.2 | 2.1 nM | 0.0089 µM | 0.0092 | 0.0038 µM and 0.004 µM |  |  |  | 
11 | Cc1c2ccc3c1nnn3CCCCCCOc1cnc(cn1)C(=O)N1CCc3ccc(cc3C1)C2CC(=O)O (centres unmarked) [Compound 379, 2-(34-methyl-22-oxo-17-oxa-8,9,10,19,23,32-hexazahexacyclo[21.5.3.218,21.13,7.06,10.026,30]tetratriaconta-1(29),3,5,7(34),8,18,20,26(30),27,32-decaen-2-yl)acetic Acid] | 158 | 147 nM | 0.193 µM | 0.206 | 0.0052 µM and 0.0054 µM |  |  |  | 
12 | Cc1c2ccc3c1nnn3CCCCCCc1ccc3c(c1)cc(n3CCCF)C(=O)N1CCc3ccc(cc3C1)[C@@H]2CC(=O)O [Compound 69] |  |  |  |  | 0.0009 µM and 0.0007 µM | 7.7 | 0.549 | 0.494 | 9
13 | Cc1cc2cnc1OCCCCCc1ccc(cc1)C(=O)N1CCc3ccc(cc3C1)[C@H]2[C@H](C)C(=O)O [Compound 70] |  |  |  |  | 0.594 µM and 0.763 µM | 32.4 | 0.221 | 0.15 | 29.9
14 | Cc1cc2cc3c1CCN(C3)C(=O)c1ccc(cc1)CCCCCCn1nnc3c(C)c(cnc31)[C@H]2CC(=O)O [Compound 93] |  |  |  |  | 0.0013 µM and 0.0014 µM | 3.4 | 0.0171 | 0.0154 | 2.7
15 | Cc1c2ccc3c1nnn3CCCOCCc1ccc(c(F)c1)C(=O)N1CCc3ccc(cc3C1)[C@H]2CC(=O)O [Compound 357] |  |  |  |  | 0.0114 µM and 0.011 µM | > 1000 | 1.71 | 1.94 | 969
16 | CC(C)(C(=O)O)[C@@H]1c2ccc3c(c2)CN(CC3)C(=O)c2c(F)cc(cc2F)OCCCCCCn2nnc3cc1ccc32 [Compound 236] | 62.7 | 50.3 nM and 82.1 nM and 84.7 nM | 0.248 µM and 0.22 µM and 0.19 µM | 0.286 | 0.051 µM and 0.0444 µM and 0.0446 µM |  |  |  | 
17 | Cc1c2cnc3c1nnn3CCCCCc1cc(F)c(c(F)c1)C(=O)N1CCc3ccc(cc3C1)[C@@H]2CC(=O)O [Compound 136] | 10 | 7.3 nM | 0.0243 µM | 0.015 | 0.0014 µM and 0.0013 µM |  |  |  | 
18 | Cc1cc2ccc1C(=O)N1CCc3ccc(cc3C1)[C@H]([C@H](C)C(=O)O)c1ccc3c(c1)nnn3CCCCCCO2 [Compound 292] | 349 |  |  | 0.637 | 0.0077 µM and 0.0059 µM |  |  |  | 
